We go through one compound from US20260174682A1, “GAMMA-AMINOBUTYRIC ACID DERIVATIVE COMPRISING POLYCYCLIC STRUCTURE, METHOD FOR PREPARING SAME, AND USE THEREOF” (ZHONGSHAN INSTITUTE FOR DRUG DISCOVERY, SIMM, CAS., priority 2022, published 2026).

One experiment deals with postherpetic neuralgia. Particulars: 150-600 mg per day; cited from earlier work.
Experiment [1] addresses T1, human recombinant calcium ion channel Cav2.2/β3/α2δ-1 (Homo sapiens, UniProt P54289).
T1 construct: expressed in transfected cells; host or cells: CHO cells (membranes)
In words: In vitro binding to human recombinant calcium ion channel Cav2.2/β3/α2δ-1 ([3H]gabapentin competition). From the text:
Example 28 In Vitro Binding of Compounds to Human Recombinant Calcium Ion Channel Cav2.2/β3/α2δ-1
There are four subtypes of the voltage-gated calcium ion channel α2δ subunit, α2δ-1, α2δ-2, α2δ-3 and α2δ-4, in which α2δ-1 is the subtype that mediates chronic neuropathic pain (Field, M. J. et al.; Proc. Natl. Acad. Sci. U.S.A. 2006, 103, 17537-17542). Therefore, the binding strength of a compound to α2δ-1 is a direct indicator for measuring an analgesic effect thereof on the chronic neuropathic pain (Calandre, E. P. et al.; Expert Rev. Neuroether. 2016, 16, 1263-1277).
The in vitro binding strength of the compound of the present application to human recombinant calcium ion channel Cav2.2/β3/α2δ-1 is basically operated according to a reported method (Gee, N. S. et al.; J. Biol. Chem. 1996, 271, 5768-5776; Marais, E. et al.; Mol. Pharmacol. 2001, 59, 1243-1248). CHO cells expressing the human recombinant calcium ion channel Cav2.2/β3/α2δ-1 were used in the test. After routine separation of cell membranes, 3 μg of the cell membranes were added into each well with a modified HEPES/KOH buffer solution (pH 7.4) as a solution of the test system. Then, 5 nM [^3H]gabapentin and the compound to be tested at 6 concentrations (3, 9, 27, 81, 243, and 729 nM) were added, and the test system was incubated at 25° C. for 120 min. Non-specific binding was obtained by replacing the compound to be tested in the above test system with […] gabapentin. After the incubation was completed, the cell membranes were collected by filtration and washed with 50 mM Tris-HCl (pH 7.4), and then the radioactivity of [^3H]gabapentin bound to the cell membranes was tested by a liquid scintillation technology. […] An inhibition rate of the compound of the present application on the binding of the [^3H]gabapentin to the human recombinant calcium ion channel Cav2.2/β3/α2δ-1 was calculated according to the following formula: […]
wherein • I is the radioactivity corresponding to that the compound to be tested and [^3H]gabapentin are simultaneously co-incubated with the human recombinant calcium ion channel Cav2.2/β3/α2δ-1, • I0 is the radioactivity corresponding to co-incubation of [^3H]gabapentin and the human recombinant calcium ion channel Cav2.2/β3/α2δ-1 without adding the compound to be tested into the incubation system, and • IU is the radioactivity corresponding to that 10 μM gabapentin and [^3H]gabapentin are simultaneously co-incubated with the human recombinant calcium ion channel Cav2.2/β3/α2δ-1.
The concentration of the compound to be tested that inhibits 50% of the binding of [^3H]gabapentin to the human recombinant calcium ion channel Cav2.2/β3/α2δ-1 is defined as IC50, and the IC50 is calculated by nonlinear least squares regression analysis using the above inhibition rate (MathIQ™, ID Business Solutions Ltd., UK).

T1 sequence (P54289 25-956 limits assumed): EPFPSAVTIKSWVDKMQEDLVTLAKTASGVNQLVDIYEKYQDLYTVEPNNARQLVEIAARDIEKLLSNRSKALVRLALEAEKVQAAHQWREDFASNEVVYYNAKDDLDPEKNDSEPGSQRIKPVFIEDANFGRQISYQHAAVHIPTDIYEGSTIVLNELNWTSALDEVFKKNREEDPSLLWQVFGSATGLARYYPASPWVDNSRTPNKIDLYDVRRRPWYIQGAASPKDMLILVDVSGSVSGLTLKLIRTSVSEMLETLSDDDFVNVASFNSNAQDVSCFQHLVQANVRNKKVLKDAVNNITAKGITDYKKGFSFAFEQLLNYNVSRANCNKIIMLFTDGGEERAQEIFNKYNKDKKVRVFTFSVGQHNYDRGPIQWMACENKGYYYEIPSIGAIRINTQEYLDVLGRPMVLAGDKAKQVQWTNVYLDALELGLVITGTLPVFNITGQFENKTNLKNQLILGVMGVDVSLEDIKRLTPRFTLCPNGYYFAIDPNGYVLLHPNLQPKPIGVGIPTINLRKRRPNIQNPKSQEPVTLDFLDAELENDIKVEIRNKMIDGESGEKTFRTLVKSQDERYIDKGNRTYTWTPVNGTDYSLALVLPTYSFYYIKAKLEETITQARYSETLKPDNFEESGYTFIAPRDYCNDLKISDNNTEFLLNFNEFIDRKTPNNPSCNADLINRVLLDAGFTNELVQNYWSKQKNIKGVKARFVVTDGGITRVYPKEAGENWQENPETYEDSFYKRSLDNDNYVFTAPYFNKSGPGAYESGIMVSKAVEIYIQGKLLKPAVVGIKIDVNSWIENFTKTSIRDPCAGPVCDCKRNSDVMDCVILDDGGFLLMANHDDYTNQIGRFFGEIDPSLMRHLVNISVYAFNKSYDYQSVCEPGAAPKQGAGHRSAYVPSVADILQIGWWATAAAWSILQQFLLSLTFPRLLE
T1 sequence (P54289 957-1103 partner limits assumed): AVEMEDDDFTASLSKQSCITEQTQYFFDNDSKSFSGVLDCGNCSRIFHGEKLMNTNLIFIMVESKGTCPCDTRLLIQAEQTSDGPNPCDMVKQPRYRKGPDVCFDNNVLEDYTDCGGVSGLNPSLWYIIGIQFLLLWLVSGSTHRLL
T1 sequence (Q00975 whole entry partner): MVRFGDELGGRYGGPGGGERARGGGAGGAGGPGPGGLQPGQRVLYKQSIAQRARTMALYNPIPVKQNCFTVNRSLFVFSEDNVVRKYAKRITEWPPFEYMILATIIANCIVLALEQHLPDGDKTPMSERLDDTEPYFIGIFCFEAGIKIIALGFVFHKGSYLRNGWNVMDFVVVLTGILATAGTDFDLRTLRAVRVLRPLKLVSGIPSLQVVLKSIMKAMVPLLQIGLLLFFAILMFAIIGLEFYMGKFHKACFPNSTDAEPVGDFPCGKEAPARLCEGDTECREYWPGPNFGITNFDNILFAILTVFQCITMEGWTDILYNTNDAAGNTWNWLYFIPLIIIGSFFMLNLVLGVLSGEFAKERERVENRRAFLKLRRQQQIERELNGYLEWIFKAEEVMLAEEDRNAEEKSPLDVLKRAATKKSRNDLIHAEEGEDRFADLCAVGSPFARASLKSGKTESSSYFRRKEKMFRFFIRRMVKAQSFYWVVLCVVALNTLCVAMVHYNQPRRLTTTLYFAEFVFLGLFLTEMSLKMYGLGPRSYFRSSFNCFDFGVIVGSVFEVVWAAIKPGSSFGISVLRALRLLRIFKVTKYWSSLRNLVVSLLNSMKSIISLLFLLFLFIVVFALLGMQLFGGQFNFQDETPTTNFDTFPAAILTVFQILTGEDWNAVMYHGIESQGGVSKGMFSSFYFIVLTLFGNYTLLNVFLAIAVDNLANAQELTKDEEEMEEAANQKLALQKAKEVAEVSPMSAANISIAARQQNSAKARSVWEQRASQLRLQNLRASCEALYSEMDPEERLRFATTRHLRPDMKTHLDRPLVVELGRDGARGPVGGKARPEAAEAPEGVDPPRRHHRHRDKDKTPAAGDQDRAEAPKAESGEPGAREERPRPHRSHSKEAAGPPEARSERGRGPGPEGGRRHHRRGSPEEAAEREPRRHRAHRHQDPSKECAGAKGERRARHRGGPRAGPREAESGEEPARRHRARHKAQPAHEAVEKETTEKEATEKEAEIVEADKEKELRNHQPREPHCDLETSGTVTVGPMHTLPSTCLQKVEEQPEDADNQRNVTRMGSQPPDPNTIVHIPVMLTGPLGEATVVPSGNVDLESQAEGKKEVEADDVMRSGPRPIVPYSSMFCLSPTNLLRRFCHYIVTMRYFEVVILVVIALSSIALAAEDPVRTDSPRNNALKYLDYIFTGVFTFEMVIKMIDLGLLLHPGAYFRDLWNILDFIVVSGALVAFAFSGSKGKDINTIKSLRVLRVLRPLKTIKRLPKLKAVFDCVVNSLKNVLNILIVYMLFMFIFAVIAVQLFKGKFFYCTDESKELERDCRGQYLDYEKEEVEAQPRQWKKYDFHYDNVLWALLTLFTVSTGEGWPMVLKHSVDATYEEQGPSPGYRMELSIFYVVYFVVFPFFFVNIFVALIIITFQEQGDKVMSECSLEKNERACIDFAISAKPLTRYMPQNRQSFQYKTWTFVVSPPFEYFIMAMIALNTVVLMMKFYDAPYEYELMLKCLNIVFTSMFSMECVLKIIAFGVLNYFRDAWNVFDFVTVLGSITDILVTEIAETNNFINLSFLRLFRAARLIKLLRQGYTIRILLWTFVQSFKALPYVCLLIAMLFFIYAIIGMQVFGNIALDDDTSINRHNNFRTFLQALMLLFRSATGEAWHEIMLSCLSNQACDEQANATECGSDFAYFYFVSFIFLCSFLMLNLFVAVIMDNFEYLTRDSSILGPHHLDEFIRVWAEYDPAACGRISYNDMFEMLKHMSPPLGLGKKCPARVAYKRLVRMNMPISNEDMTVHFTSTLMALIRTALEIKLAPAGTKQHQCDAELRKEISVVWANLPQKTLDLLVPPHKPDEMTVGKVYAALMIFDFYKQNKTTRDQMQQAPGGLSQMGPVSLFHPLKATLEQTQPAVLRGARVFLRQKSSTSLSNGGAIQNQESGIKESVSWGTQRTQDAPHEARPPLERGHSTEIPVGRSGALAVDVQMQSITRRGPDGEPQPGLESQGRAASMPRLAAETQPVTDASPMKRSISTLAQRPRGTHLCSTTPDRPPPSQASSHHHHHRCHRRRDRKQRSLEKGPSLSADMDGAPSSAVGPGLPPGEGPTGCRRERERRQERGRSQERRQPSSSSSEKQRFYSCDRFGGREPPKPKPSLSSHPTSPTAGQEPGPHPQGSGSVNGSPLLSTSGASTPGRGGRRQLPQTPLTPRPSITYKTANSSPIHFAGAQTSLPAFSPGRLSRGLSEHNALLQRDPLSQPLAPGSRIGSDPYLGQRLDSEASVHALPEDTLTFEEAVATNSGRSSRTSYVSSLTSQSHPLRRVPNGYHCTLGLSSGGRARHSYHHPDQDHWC
T1 sequence (P54284 whole entry partner): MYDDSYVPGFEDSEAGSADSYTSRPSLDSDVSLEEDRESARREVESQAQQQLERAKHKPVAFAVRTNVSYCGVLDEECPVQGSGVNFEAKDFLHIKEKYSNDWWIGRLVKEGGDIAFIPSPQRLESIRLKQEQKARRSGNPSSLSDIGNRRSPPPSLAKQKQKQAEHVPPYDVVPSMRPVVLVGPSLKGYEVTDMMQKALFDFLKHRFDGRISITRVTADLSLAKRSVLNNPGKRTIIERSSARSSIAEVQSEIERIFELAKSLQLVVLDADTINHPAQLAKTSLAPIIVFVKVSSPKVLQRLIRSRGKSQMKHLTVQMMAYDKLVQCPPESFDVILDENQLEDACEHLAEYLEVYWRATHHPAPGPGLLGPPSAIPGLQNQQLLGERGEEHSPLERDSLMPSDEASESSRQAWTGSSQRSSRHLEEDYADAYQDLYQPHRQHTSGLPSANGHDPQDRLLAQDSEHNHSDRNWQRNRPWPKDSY

Turning to `CC(C)C[C@H](CN)CC(=O)O` [Pregabalin], in the experiment with postherpetic neuralgia, the clinical effective rate is 26%-50. Further, in experiment [1], the IC50 amounted to 38 nM.
